Patent US9308179B2, “Long circulating nanoparticles for sustained release of therapeutic agents” (BIND Therapeutics, Inc., priority 2008, dated 2016)
Like-named read-outs stand apart in the source and are kept apart here. Marks after values point to notes of the source that are not given here.

What was measured:
[1] = Tissue distribution of radioactivity in rats after IV administration; type: in vivo, Sprague-Dawley rats
Method: Six- to eight-week old male Sprague-Dawley rats were administered a single bolus intravenous dose of one of the following: (1) docetaxel encapsulated in nanoparticles in which the ligand of the PLA-PEG-lys(urea)glu targeting polymer was ^14C-labeled, (2) docetaxel encapsulated in nanoparticles in which the encapsulated docetaxel was ^14C-labeled, (3) ^14C-labeled conventional docetaxel.
Blood was drawn at 1, 3, 6, 12, and 24 hours post-dosing and processed to plasma. Immediately following blood collection, the rats were euthanized by CO2 asphyxiation and tissues were immediately collected, blotted, weighed, and frozen on dry ice. Tissue samples were stored frozen (approximately −70° C.) until analysis for radioactivity by liquid scintillation (LS) counting.

[2] = Tumor docetaxel concentration after a single dose in human tumor xenograft model (LNCaP); type: in vivo, SCID mice; conditions: male, SCID, mouse
Method: Male severe combined immunodeficiency (SCID) mice were subcutaneously inoculated with human LNCaP prostate cancer cells. Three to four weeks after inoculation, the mice were assigned to different treatment groups such that the average tumor volume in each group was 300 mm^3. At this time, a single intravenous (IV) dose of 50 mg/kg docetaxel was administered as either docetaxel encapsulated in nanoparticles or conventional docetaxel. The test subjects were sacrificed 2 hour or 12 hour post-dose. The tumors from each group were excised and assayed for docetaxel using liquid chromatography-mass spectrometry (LC-MS).

[3] = Pharmacokinetics of docetaxel nanoparticles in primates; type: in vivo, non human primates; design: Cmax/D / AUC/D: unit not given beside the values; conditions: for AUC / Cl / Vz / half-life / Cmax: 30 minute IV infusion; for half-life: in vivo
Method: 1 male and 1 female were used per dose group. The dosing day was 1 day and the formulations were administered by 30 minute IV infusion at 25 mg/m^2 docetaxel or 50 mg/m^2 docetaxel (animals were randomized and then dosed with 50 mg/m2 on day 29 and PK, hematology and clinical chemistry were measured for 21 days). At the end of the study, PK, hematology and clinical chemistry collected over a 21 day period were assessed. FIG. 12 depicts the results of male (M) and female (F) PNP.

[4] = Acute dose range finding study in Sprague-Dawley rats; type: in vivo; conditions: 7 days
Method: Sixty Sprague-Dawley rats (30/sex) were assigned to 10 dose groups (3 rats/sex/group) and were administered a single dose of either docetaxel encapsulated in nanoparticles (5.7, 7.5, 10, 15 or 30 mg/kg body weight) or conventional docetaxel (5.7, 7.5, 10, 15 or 30 mg/kg body weight).

[5] = test system: human LNCaP prostate cancer cells; assay: Anti-tumor activity after repeated doses in human tumor xenograft model (LNCaP); type: in vivo, SCID mice; conditions: Q2D for four doses, eight day holiday, another four doses; FIG. 7
Method: Male severe combined immunodeficiency (SCID) mice were subcutaneously inoculated with human LNCaP prostate cancer cells. Three to four weeks after inoculation, the mice were assigned to different treatment groups such that the average tumor volume in each group was 250 mm^3. Subsequently, the mice were treated every other day (Q2D) for four doses, with an eight day holiday, followed by another four doses at the Q2D schedule.

MX-1 breast tumors = assay: Tumor accumulation of docetaxel nanoparticles in MX-1 breast tumors; type: in vivo, mice; conditions: 10 mg/kg, 24 hours after injection, LC/MS/MS
Method: Mice were then injected with 10 mg/kg of the test article, then euthanized 24 hours later and the tumors were removed and analyzed for docetaxel content using LC/MS/MS. Results are depicted in FIG. 12.

[6] = Single dose pharmacokinetic study in Sprague-Dawley rats; type: in vivo; conditions: male, rat
Method: Six- to eight-week old male Sprague-Dawley rats were administered a single bolus dose (5 mg/kg of docetaxel) of docetaxel encapsulated in nanoparticles or conventional docetaxel via a tail vein. The dose groups consisted of six rats each. Blood was drawn at 0.083, 0.5, 1, 2, 3, 4, 6, and 24 hours post-dosing and processed to plasma. The concentration of total docetaxel in plasma was measured by a liquid chromatography-mass spectrometry (LC-MS) method following extraction with methyl tert-butyl ether (MTBE).

[7] = 5 mg/kg, cited from earlier work
[8] = plasma, 5 mg/kg single IV bolus

## CC(=O)O[C@@]12CO[C@@H]1C[C@H](O)[C@@]1(C)C(=O)[C@H](O)C3=C(C)[C@@H](OC(=O)[C@H](O)[C@@H](NC(=O)OC(C)(C)C)c4ccccc4)C[C@@](O)([C@@H](OC(=O)c4ccccc4)[C@H]21)C3(C)C [Conventional ^14C-Docetaxel, docetaxel]
[1]; 1 h after IV administration
  Radioactivity in Bone Marrow: 97 ± 4.2 nCi/g
  Radioactivity in Heart: 71 ± 2.5 nCi/g
  Radioactivity in Large Intestine: 54 ± 3.6 nCi/g
  Radioactivity in Liver: 78 ± 15 nCi/g
  Radioactivity in Lungs: 82 ± 9.6 nCi/g
  Radioactivity in Plasma: 4.9 ± 0.4 nCi/mL
  Radioactivity in Small Intestine: 517 ± 99 nCi/g
  Radioactivity in Spleen: 100 ± 9.4 nCi/g
[1]; 3 h after IV administration
  Radioactivity in Bone Marrow: 83 ± 1.0 nCi/g
  Radioactivity in Heart: 39 ± 1.5 nCi/g
  Radioactivity in Large Intestine: 166 ± 37 nCi/g
  Radioactivity in Liver: 49 ± 7.3 nCi/g
  Radioactivity in Lungs: 66 ± 0.7 nCi/g
  Radioactivity in Plasma: 1.9 ± 0.2 nCi/mL
  Radioactivity in Small Intestine: 122 ± 43 nCi/g
  Radioactivity in Spleen: 81 ± 7.5 nCi/g
[1]; 6 h after IV administration
  Radioactivity in Bone Marrow: 78 ± 1.9 nCi/g
  Radioactivity in Heart: 33 ± 1.3 nCi/g
  Radioactivity in Large Intestine: 185 ± 82 nCi/g
  Radioactivity in Liver: 49 ± 11 nCi/g
  Radioactivity in Lungs: 993 ± 1605 nCi/g
  Radioactivity in Plasma: 1.6 ± 0.5 nCi/mL
  Radioactivity in Small Intestine: 62 ± 5.2 nCi/g
  Radioactivity in Spleen: 82 ± 4.6 nCi/g
[1]; 12 h after IV administration
  Radioactivity in Bone Marrow: 62 ± 9.4 nCi/g
  Radioactivity in Heart: 28 ± 1.7 nCi/g
  Radioactivity in Large Intestine: 83 ± 18 nCi/g
  Radioactivity in Liver: 55 ± 7.4 nCi/g
  Radioactivity in Lungs: 1438 ± 1218 nCi/g
  Radioactivity in Plasma: 0.8 ± 0.2 nCi/mL
  Radioactivity in Small Intestine: 41 ± 4.9 nCi/g
  Radioactivity in Spleen: 77 ± 11 nCi/g
[1]; 24 h after IV administration
  Radioactivity in Bone Marrow: 41 ± 6.8 nCi/g
  Radioactivity in Heart: 24 ± 2.6 nCi/g
  Radioactivity in Large Intestine: 48 ± 34 nCi/g
  Radioactivity in Liver: 43 ± 4.0 nCi/g
  Radioactivity in Lungs: 962 ± 99 nCi/g
  Radioactivity in Plasma: 0.6 ± 0.1 nCi/mL
  Radioactivity in Small Intestine: 47 ± 19 nCi/g
  Radioactivity in Spleen: 85 ± 8.6 nCi/g

## CC(=O)O[C@@]12CO[C@@H]1C[C@H](O)[C@@]1(C)C(=O)[C@H](O)C3=C(C)[C@@H](OC(=O)[C@H](O)[C@@H](NC(=O)OC(C)(C)C)c4ccccc4)C[C@@](O)([C@@H](OC(=O)c4ccccc4)[C@H]21)C3(C)C [Conventional Docetaxel, docetaxel]
[2]; 2 h after single IV dose of 50 mg/kg docetaxel
  concentration at 2 h: 12900 ± 7900 ng/g
[2]; 12 h after single IV dose of 50 mg/kg docetaxel
  concentration at 12 h: 3600 ± 2100 ng/g
[3]; 25 mg/m2, F
  AUC/D: 109
  Cmax/D: 23.8
  AUC: 2714 ng·h/mL
  Cl: 9213 mL/hr/m2
  Vz: 412186 mL/m2
[3]; 25 mg/m2, M
  AUC/D: 102
  Cmax/D: 14.6
  Cl: 9794 mL/hr/m2
  Vz: 253783 mL/m2
[3]; 50 mg/m2, F
  AUC/D: 72
  Cmax/D: 16.7
  AUC: 3599 ng·h/mL
  Cl: 13893 mL/hr/m2
  Vz: 788340 mL/m2
[3]; 50 mg/m2, M
  AUC/D: 76.5
  Cmax/D: 24.2
  Cl: 13073 mL/hr/m2
  Vz: 743682 mL/m2
[3]; female, monkey, 25 mg/m2, F
  half-life: 31 h
[3]; female, monkey, 50 mg/m2, F
  half-life: 39 h
[3]; female, monkey, plasma, 25 mg/m2, F
  Cmax: 596 ng/mL
[3]; female, monkey, plasma, 50 mg/m2, F
  Cmax: 835 ng/mL
[3]; male, monkey, 25 mg/m2, M
  half-life: 18 h
[3]; male, monkey, 50 mg/m2, M
  half-life: 39 h
[3]; male, monkey, plasma, 25 mg/m2, M
  Cmax: 364 ng/mL
[3]; male, monkey, plasma, 25 mg/m2, M, read-out: AUC
  AUC: 2550 ng·h/mL
[3]; male, monkey, plasma, 50 mg/m2, M
  Cmax: 1210 ng/mL
[3]; male, monkey, plasma, 50 mg/m2, M, read-out: AUC
  AUC: 3280 ng·h/mL
[4]; 5.7-30 mg/kg single dose
  survival to scheduled necropsy: All test subjects survived
[4]; female, Sprague-Dawley, rat, in vivo, 10 mg/kg
  piloerection, female rats affected: 1/9
[4]; male, Sprague-Dawley, rat, in vivo, 10 mg/kg
  piloerection, male rats affected: 5/9
[5]
  effect on tumor volume: appreciable reduction in tumor volume
MX-1 breast tumors
  percent of injected dose in the tumor: 3%
[6]; 5 mg/kg single IV bolus, total docetaxel in plasma
  Cmax: 600 ng/mL
[6]; [8]
  AUC(0-inf): 623 ng·h/mL
  clearance: 38.8 mL/min/kg
[6]; plasma, 5 mg/kg single IV bolus, tmax equals the first sampling time
  tmax: 5 min
[6]; plasma, iv, 5 mg/kg
  half-life: 4.4 h
[7]
  AUC0-∞: 910 ng·h/mL
  CL: 91.7 mL/min/kg
  Cmax: 4,100 ng/mL
[7]; study duration was 6 hours
  t1/2: 0.8^b h
[7]; tmax equals the first sampling time
  tmax: 2 min
